{"source": "paper PMC7614683", "about": "“A small molecule PI3Kα activator for cardioprotection and neuroregeneration” (Nature, 2023)", "key": {"PI3Kα-WT A549 cells": {"system": "PI3Kα-WT A549 cells", "assay": "TIRF microscopy of PIP3 reporter, PI3Kα-WT A549", "assay_type": "cell-based, human", "details": "1938, then BYL719 0.5 μM", "description": "Phosphoinositide reporters used were GFP-PH-ARNO^I303Ex2 (PIP3 reporter[41]) and mCherry-cPH-TAPP1x3 (PI(3,4)P2 reporter[41]). TIRF microscopy allows selective imaging of the small cell volume, including the plasma membrane, directly adjacent to the coverslip onto which cells have been seeded. HeLa or A549 cells were seeded in Matrigel-coated (Corning #354230; diluted in Opti-MEM at 1:50) 8-well chamber slides (glass bottom, 1.55 refractive index; Thermo Fisher Scientific #155409) at a density of 5,000 cells/well. […]\nImage analyses of total reporter intensities were performed with the Fiji open source image analysis package. The region of interest (ROI) corresponding to the footprint of the individual cell across time points were defined using minimal intensity projection to select only pixels present across all time points, following prior subtraction of camera noise (rolling ball method, radius = 500 pixels) and xy drift correction, intensity levels over time were measured. […] All other quantifications were performed using the open source software R/RStudio. The values plotted in Fig. 3d (iii) represent mean±SEM, following signal scaling to minimum and maximum values of the normalised fluorescence intensity for each time point (Fn(t)). […]"}, "adult rat DRG neurons": {"system": "adult rat DRG neurons", "assay": "Neurite outgrowth in dissociated adult rat dorsal root ganglion cultures", "assay_type": "cell-based", "details": "72h; BYL719 500 nM with 1938 above 10^-7 M", "description": "Dissociated adult rat dorsal root ganglion (DRG) cultures were used as an in vitro model for neuroregeneration[80],[81]. DRG neurons were isolated from adult male (>250g) Wistar rats as described, with DRGs from each rat cultured separately. Following culling via schedule 1 (rising concentration of CO2), the spinal column was removed and stored in PBS on ice. Cord tissue was removed to expose the DRGs and roots in the intervertebral foramen and the DRGs removed with forceps and scalpel under a dissecting microscope (Olympus SZ40). DRGs were manually cleaned by removal of roots, capsule and capillaries with forceps and then placed in DMEM supplemented with P/S. DRGs were treated with 0.125% collagenase type IV solution at 37°C for 90 min, and then mechanically dissociated by trituration using a 1 ml pipette. The collagenase solution was removed by 2 rounds of centrifugation in complete DMEM (DMEM with 1% P/S and 10% FBS) at 400 xg for 5 min, followed by resuspension of the DRG cell pellet in complete DMEM supplemented with 0.01 mM cytosine arabinoside. DRGs were plated in 75-cm[2] flasks coated with 0.1 mg/ml poly-D-lysine and incubated at 37°C, 5% CO2. […] 9 fields per well were captured and analysed using the CSIRO Neurite Analysis 2 […] in Columbus analysis software (Perkin Elmer). […]"}}}
{"smiles": "Cc1nc(NC(=O)N2CCC[C@H]2C(N)=O)sc1-c1ccnc(C(C)(C)C(F)(F)F)c1", "note": "[BYL719, reference compound]", "values": [{"measurement": "plasma membrane PIP3 (biosensor)", "setting": "PI3Kα-WT A549 cells", "value": "fully and acutely neutralized"}, {"measurement": "neurite outgrowth (total length of neurites)", "setting": "adult rat DRG neurons", "value": "partially reduced the increase in neurite outgrowth"}]}
